Measured values from PubChem BioAssay AID330 (DTP/NCI, 2004).
Where “and” joins values, the source holds several entries; their conditions need not be identical. Equal values may be shown once. Toxic doses and inconclusive results are not listed. How the source made its calls: active means survival T/C of 150% or more; inactive means T/C below 125% in these data.

Tested on: P388 leukemia ip, CD2F1 mice, survival T/C
Experiment: NCI In Vivo Anticancer Drug Screen. Data for tumor model P388 Leukemia (intraperitoneal) in CD2F1 (CDF1) mice
Conditions: endpoint: median survival time, higher = longer survival
How it was run: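 Mice carrying the transplanted tumor received test compound or vehicle. Survival was recorded in each group, and the value is the treated-group measurement divided by that of the vehicle-treated control group.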

[1] = dose: 50.0 mg/kg/injection, schedule: Q01DX009 (ip), vehicle: Klucel (hydroxypropylcellulose) (HPC)
[2] = dose: 100.0 mg/kg/injection, schedule: Q01DX009 (ip), vehicle: Klucel (hydroxypropylcellulose) (HPC)
[3] = dose: 200.0 mg/kg/injection, schedule: Q01DX009 (ip), vehicle: Klucel (hydroxypropylcellulose) (HPC)
[4] = dose: 50.0 mg/kg/injection, schedule: Q01DX009 (ip), vehicle: saline
[5] = dose: 100.0 mg/kg/injection, schedule: Q01DX009 (ip), vehicle: saline
[6] = dose: 200.0 mg/kg/injection, schedule: Q01DX009 (ip), vehicle: saline
[7] = dose: 50.0 mg/kg/injection, schedule: Q01DX009 (ip), vehicle: saline with Tween-80
[8] = dose: 100.0 mg/kg/injection, schedule: Q01DX009 (ip), vehicle: saline with Tween-80
[9] = dose: 200.0 mg/kg/injection, schedule: Q01DX009 (ip), vehicle: saline with Tween-80
[10] = dose: 50.0 mg/kg/injection, schedule: Q01DX005 (ip), vehicle: saline with Tween-80
[11] = dose: 100.0 mg/kg/injection, schedule: Q01DX005 (ip), vehicle: saline with Tween-80
[12] = dose: 200.0 mg/kg/injection, schedule: Q01DX005 (ip), vehicle: saline with Tween-80
[13] = dose: 60.0 mg/kg/injection, schedule: Q01DX005 (ip), vehicle: saline with Tween-80
[14] = dose: 120.0 mg/kg/injection, schedule: Q01DX005 (ip), vehicle: saline with Tween-80
[15] = dose: 240.0 mg/kg/injection, schedule: Q01DX005 (ip), vehicle: saline with Tween-80
[16] = dose: 50.0 mg/kg/injection, schedule: Q01DX005 (ip), vehicle: saline
[17] = dose: 100.0 mg/kg/injection, schedule: Q01DX005 (ip), vehicle: saline

Measured: T/C

CN1C(=O)C(=O)N(Cc2ccc(CN3C(=O)C(=O)N(C)C3=O)cc2)C1=O
inactive: [1] 101 % of control | [2] 103 % of control | [3] 100 % of control

CCOC(=O)CC(=O)c1ccc(Cl)cc1
inactive: dose: 25.0 mg/kg/injection, schedule: Q01DX009 (ip), vehicle: saline 100 % of control | [4] 100 % of control | [5] 104 % of control | [6] 101 % of control

O=c1c(N=Nc2ccccc2)c(O)n(-c2ccccc2Cl)c(=S)n1-c1ccccc1
inactive: dose: 25.0 mg/kg/injection, schedule: Q01DX001 (ip), vehicle: Klucel (hydroxypropylcellulose) (HPC) 97 % of control | dose: 50.0 mg/kg/injection, schedule: Q01DX001 (ip), vehicle: Klucel (hydroxypropylcellulose) (HPC) 104 % of control | dose: 100.0 mg/kg/injection, schedule: Q01DX001 (ip), vehicle: Klucel (hydroxypropylcellulose) (HPC) 92 % of control

Cc1ccc(NC(=S)N2CCCC2)cc1C
inactive: [1] 100 % of control and 101 % of control | [2] 109 % of control | [3] 91 % of control and 98 % of control

COc1ccc(CN2COc3c(ccc4cccnc34)C2)cc1
inactive: dose: 100.0 mg/kg/injection, schedule: Q04DX003 (ip), vehicle: Klucel (hydroxypropylcellulose) (HPC) 93 % of control | dose: 200.0 mg/kg/injection, schedule: Q04DX003 (ip), vehicle: Klucel (hydroxypropylcellulose) (HPC) 93 % of control | dose: 400.0 mg/kg/injection, schedule: Q04DX003 (ip), vehicle: Klucel (hydroxypropylcellulose) (HPC) 111 % of control

O=C(Nc1cccc(Cl)c1)Nc1ccc[nH]c1=O
inactive: [7] 101 % of control | [8] 109 % of control | [9] 109 % of control

O=C1c2c3c(c4c(c2C(=O)c2c5c(c6c(c21)CCC6)CCC5)CCCC4)CCCC3
inactive: dose: 20.0 mg/kg/injection, schedule: Q01DX009 (ip), vehicle: saline with Tween-80 100 % of control | dose: 40.0 mg/kg/injection, schedule: Q01DX009 (ip), vehicle: saline with Tween-80 99 % of control | dose: 80.0 mg/kg/injection, schedule: Q01DX009 (ip), vehicle: saline with Tween-80 93 % of control

Cc1ccc2[nH]c(=S)n(CCc3ccccc3)c(=O)c2c1
inactive: [1] 99 % of control | [2] 97 % of control | [3] 97 % of control

O=c1c(-c2ccc(O)cc2)coc2c(C3OC(CO)C(O)C(O)C3O)c(O)ccc12 (configuration not stated)
inactive: [10] 104 % of control | [11] 101 % of control | [12] 93 % of control

O=C(O)C1CCC(=O)N1Cc1csc(-c2ccccc2)n1 (configuration not stated)
inactive: [13] 103 % of control | [14] 93 % of control | [15] 99 % of control

CN1C(=O)N(C)P123OP1(N(C)C(=O)N1C)(N(C)C(=O)N2C)N(C)C(=O)N3C
inactive: dose: 60.0 mg/kg/injection, schedule: Q01DX005 (ip), vehicle: saline 103 % of control | dose: 120.0 mg/kg/injection, schedule: Q01DX005 (ip), vehicle: saline 97 % of control | dose: 240.0 mg/kg/injection, schedule: Q01DX005 (ip), vehicle: saline 89 % of control

CC(C)(O)c1ccc[n+]([O-])c1
inactive: [4] 98 % of control | [5] 107 % of control | [6] 100 % of control

CC1Nc2nc(N)[nH]c(=O)c2NC1C (configuration not stated)
inactive: dose: 25.0 mg/kg/injection, schedule: Q01DX005 (ip), vehicle: saline 97 % of control | [16] 100 % of control and 97 % of control | [17] 101 % of control and 97 % of control | dose: 200.0 mg/kg/injection, schedule: Q01DX005 (ip), vehicle: saline 101 % of control and 95 % of control

CN=C(c1ccc(NC(=O)c2cc(N)cc(C(=O)Nc3ccc(C(=NC)N(C)C)cc3)c2)cc1)N(C)C
inactive: dose: 6.25 mg/kg/injection, schedule: Q01DX005 (ip), vehicle: Klucel (hydroxypropylcellulose) (HPC) 104 % of control | dose: 12.5 mg/kg/injection, schedule: Q01DX005 (ip), vehicle: Klucel (hydroxypropylcellulose) (HPC) 104 % of control

O=C1Cn2c(cc(=O)c3ccccc32)O1
inactive: dose: 25.0 mg/kg/injection, schedule: Q01DX001 (ip), vehicle: saline with Tween-80 109 % of control | dose: 50.0 mg/kg/injection, schedule: Q01DX001 (ip), vehicle: saline with Tween-80 116 % of control | dose: 100.0 mg/kg/injection, schedule: Q01DX001 (ip), vehicle: saline with Tween-80 116 % of control

O=c1oc(-c2ccccc2)cc(N2CCCCC2)c1Cl
inactive: [7] 97 % of control | [8] 97 % of control | [9] 97 % of control

CC(C)CC1NC(=O)OC1=O (configuration not stated)
inactive: [10] 98 % of control | [11] 94 % of control | [12] 91 % of control

CCOc1cccc(/C=N/n2c(C)nc3ccccc3c2=O)c1O
inactive: [7] 101 % of control | [8] 102 % of control | [9] 96 % of control

NNC(=O)c1ccc(N)cc1
inactive: [7] 100 % of control | dose: 50.0 mg/kg/injection, schedule: Q04DX003 (ip), vehicle: saline with Tween-80 104 % of control | [8] 100 % of control | dose: 100.0 mg/kg/injection, schedule: Q04DX003 (ip), vehicle: saline with Tween-80 104 % of control | [9] 100 % of control

CN(C)C(=O)c1ccc([N+](=O)[O-])cc1
inactive: dose: 25.0 mg/kg/injection, schedule: Q01DX009 (ip), vehicle: saline with Tween-80 119 % of control | [7] 98 % of control | [8] 96 % of control | [9] 104 % of control

Clc1ccc(-c2cc3cc4c(cc3[nH]2)Sc2ccccc2O4)cc1
inactive: dose: 100.0 mg/kg/injection, schedule: Q04DX003 (ip), vehicle: saline 86 % of control | dose: 200.0 mg/kg/injection, schedule: Q04DX003 (ip), vehicle: saline 86 % of control | dose: 400.0 mg/kg/injection, schedule: Q04DX003 (ip), vehicle: saline 98 % of control

CCOC(=O)c1ccc(NC(=NC)c2ccccc2)cc1
inactive: [7] 108 % of control | [8] 105 % of control | [9] 97 % of control

C(#CC12CC3CC(CC(C3)C1)C2)C12CC3CC(CC(C3)C1)C2
inactive: dose: 50.0 mg/kg/injection, schedule: Q01DX005 (ip), vehicle: Klucel (hydroxypropylcellulose) (HPC) 98 % of control | dose: 100.0 mg/kg/injection, schedule: Q01DX005 (ip), vehicle: Klucel (hydroxypropylcellulose) (HPC) 92 % of control | dose: 200.0 mg/kg/injection, schedule: Q01DX005 (ip), vehicle: Klucel (hydroxypropylcellulose) (HPC) 91 % of control

O=C(CSC(SCC(=O)Nc1ccccc1)c1ccccc1)Nc1ccccc1
inactive: dose: 60.0 mg/kg/injection, schedule: Q01DX005 (ip), vehicle: Klucel (hydroxypropylcellulose) (HPC) 101 % of control | dose: 120.0 mg/kg/injection, schedule: Q01DX005 (ip), vehicle: Klucel (hydroxypropylcellulose) (HPC) 86 % of control

Cn1c(=O)c2c(O)c(-c3ccccc3)c(=O)n3c4ccccc4n(c1=O)c23
inactive: [13] 99 % of control | [14] 96 % of control | [15] 97 % of control

CCN(CC)CCCC(C)Nc1nccc2c(Cl)cccc12 (configuration not stated)
inactive: [16] 108 % of control | [17] 109 % of control

N=C1N=Nc2nc(C(C(=O)c3ccc(O)cc3O)c3nc4n(c3O)C(=N)N=N4)c(O)n21 (configuration not stated)
inactive: [13] 100 % of control | [14] 104 % of control | [15] 103 % of control

CNCC(O)CC12CCC(c3ccccc31)c1ccccc12 (configuration not stated)
inactive: [1] 104 % of control | [2] 106 % of control

COC(=O)c1ccc(SCCC(=O)CN2C(=O)c3ccccc3C2=O)cc1
inactive: [1] 94 % of control | [2] 93 % of control | [3] 86 % of control

C=C1C(=O)C23C(O)CC4C5(C)CCCC4(C(O)OC5)C2C(OC(C)=O)CC1C3O (configuration not stated)
inactive: dose: 4.0 mg/kg/injection, schedule: Q01DX009 (ip), vehicle: other 115 % of control | dose: 4.0 mg/kg/injection, schedule: Q01DX009 (ip), vehicle: water 114 % of control | dose: 8.0 mg/kg/injection, schedule: Q01DX009 (ip), vehicle: water 116 % of control | dose: 16.0 mg/kg/injection, schedule: Q01DX009 (ip), vehicle: other 122 % of control | dose: 16.0 mg/kg/injection, schedule: Q01DX009 (ip), vehicle: water 114 % of control | dose: 32.0 mg/kg/injection, schedule: Q01DX009 (ip), vehicle: water 107 % of control

O=C1CC2C(=O)N(Cc3ccccc3)C(=O)C2C(=O)N1 (configuration not stated)
inactive: [10] 99 % of control | [11] 97 % of control | [12] 92 % of control
